The nature of series [1]: Conductometry: molar conductivity of silver complexes in DMSO. Format: physicochemical. The following applies: 1.0 mM in DMSO, calculated as monocarbene (NHC)AgX. On the procedure: Since both the neutral monocarbene and the ionic biscarbene form of the complexes may exist in various proportions in the solution, conductometry studies were performed to reveal the dominant structure. The molar conductivity of 1.0 mM solutions of each complex in DMSO was determined after different periods up to 24 h using AgNO3 as 1:1 electrolyte reference (see Table 1). According to the literature, the expected range of molar conductivity for 1:1 electrolytes in DMSO is 35–90 S cm^2 mol^–1.[45],[46]
Conductivity measurements were performed using an Apera Instruments EC9500 conductivity meter. Solutions (as indicated, otherwise 1.0 mM) of all compounds were prepared using freshly distilled DMSO with a specific electrical conductivity of ≤3 × 10^–8 S cm^–1. The conductivities were measured at 25 ± 2 °C immediately after complete dissolution and after 24 h.

The test system of series [2] is E. coli (DSM1116, ATCC 9637). Nature of the series: microbe, parasite or virus in culture. The format is cell-based, Escherichia coli. The following applies: n = 3, MHB; for EC50 / MIC E. coli: mean ± standard error; for MIC E. coli / MIC E. coli (value in brackets): 22 h. On the procedure: (§1) The antibacterial effect of the silver NHC complexes and selected ligands was evaluated in two Gram-positive [Enterococcus faecium, methicillin resistant S. aureus, (MRSA)] and in four Gram-negative (Acinetobacter baumannii, Escherichia coli, Klebsiella pneumoniae, and Pseudomonas aeruginosa) pathogenic bacterial strains using broth microdilution assays. The resulting minimal inhibitory concentrations (MICs, Table 2) and EC50 (Table S6) were determined by a curve fitting procedure. Silver nitrate (AgNO3), SSD, and various antibiotics were used as references.
(§2) The following strains of ESKAPE panel were utilized and maintained at 37 °C in MHB (21 g/L Müller Hinton broth, pH 7.4) or TSY (30 g/L trypticase soy broth, 3 g/L yeast extract, pH 7.0–7.2) media: A. baumannii (DSM 30007, ATCC 19606), E. coli (DSM1116, ATCC 9637), K. pneumoniae (DSM 11678, ATCC33495), P. aeruginosa PA7 (DSM 24068) in MHB; E. faecium (DSM 20477, ATCC 19434), and S. aureus MRSA (DSM 11822, ICB 25701) in TSY. MIC values were determined following a standardized protocol in broth microdilution assays. The compounds and reference substances (AgNO3 and SSD) were serially diluted from 64 to 1 μg/mL. Starting inocula of 2–8 × 10^5 CFU/mL in MHB or TSY media at 37 °C were used, and serial dilutions were carried out in 96-well microtiter plates in duplicate. After incubation of the plates for 22 h at 37 °C, the absorbance at 600 nm was measured using The Spark multimode microplate reader (Tecan Trading AG). The MIC values for the tested compounds were determined in three independent experiments and presented in μM with standard errors and also in μg/mL. Amikacin (P. aeruginosa), linezolid (S. aureus), and ciprofloxacin (all other strains) served as positive controls. The MIC and EC50 values were determined by curve fitting with Sigma Plot. To determine the effect of the culture medium on the activity of silver compounds, the assay was performed using MHB, TSY, or DMEM (Gibco). To observe the effect of individual components of TSY medium, antibacterial tests were performed using MHB with addition of tryptone (17 g/L) or yeast extract (3 g/L, both were purchased from Sigma).

The subject of series [3] is P. aeruginosa PA7 (DSM 24068). Nature of the series: microbe, parasite or virus in culture. The format is cell-based, Pseudomonas aeruginosa. The following applies: n = 3, MHB; for MIC P. aeruginosa / EC50: mean ± standard error; for MIC P. aeruginosa / MIC P. aeruginosa (value in brackets): 22 h; for EC50: read-out: EC50 P. aeruginosa. On the procedure: as §1, §2
Series [4] relates to K. pneumoniae (DSM 11678, ATCC33495). The experiment in a line: Broth microdilution antibacterial assay. Format: cell-based, Klebsiella pneumoniae. The note with it: n = 3, MHB; for MIC K. pneumoniae / EC50: mean ± standard error; for MIC K. pneumoniae / MIC K. pneumoniae (value in brackets): 22 h; for EC50: read-out: EC50 K. pneumoniae. On the procedure:
as §1, §2
A general note: In broth dilution the organism is exposed to a series of concentrations in liquid medium.

The subject of series [5] is A. baumannii (DSM 30007, ATCC 19606). Nature of the series: Broth microdilution antibacterial assay. The note with it: n = 3, MHB; for MIC A. baumannii / EC50: mean ± standard error; for MIC A. baumannii / MIC A. baumannii (value in brackets): 22 h; for EC50: read-out: EC50 A. baumannii. The format is cell-based, Acinetobacter baumannii. On the procedure: as §1, §2
For series [6], the system named is S. aureus MRSA (DSM 11822, ICB 25701). The experiment in a line: microbe, parasite or virus in culture. Format: cell-based, methicillin resistant S. aureus. The note with it: n = 3, TSY; for MIC MRSA / EC50: mean ± standard error; for MIC MRSA / MIC MRSA (value in brackets): 22 h; for EC50: read-out: EC50 MRSA. The method, then:
as §1
The importance of the culture medium used in antibacterial assays has been pointed out for antibiotics and in particular for silver.[53]−[55] In our recent studies, tryptic soy yeast (TSY) broth has been used for growing Gram-positive bacteria. Two components thereof, tryptone and yeast extract, have been reported to affect the antibacterial activity of silver nitrate.[55] Moreover, such an effect was also observed for other media containing at least one of those components.[11],[53] […] Silver nitrate served as a reference, and three different growth media were studied, namely, Müller-Hinton Broth (MHB, commonly used for Gram-negative bacteria), TSY broth (commonly used for Gram-positive bacteria), and DMEM supplemented with 10% FCS (commonly used for growth of mammalian and human cells).
as §2

Series [7] relates to E. faecium (DSM 20477, ATCC 19434). Nature of the series: Broth microdilution antibacterial assay. The format is cell-based, Enterococcus faecium. The note with it: n = 3, TSY; for MIC E. faecium / EC50: mean ± standard error; for MIC E. faecium / MIC E. faecium (value in brackets): 22 h; for EC50: read-out: EC50 E. faecium. The method, then:
as §1, §2

What is called EC50 is the concentration that produces a half-maximal response. For the compound `[Cl][Ag][c]1n(Cc2ccccn2)c2ccccc2[n+]1Cc1ccccn1` [6a], the “Molar conductivity ΛM” value in series [1] (1 h after dissolution) is listed as 3.75 S cm^2 mol^–^1. The “Molar conductivity ΛM” value in series [1] (24 h after dissolution) was 4.15 S cm^2 mol^–^1. Moreover, in series [2], the EC50 worked out at 38.1 ± 6.9 µM, the “MIC E. coli” value is 48.1 ± 12.0 µM and the “MIC E. coli (value in brackets)” value was 21 µg/mL. Moreover, in series [3], the “MIC P. aeruginosa” value turned out to be 60.1 ± 12.0 µM, the EC50 is 33.6 ± 5.8 µM and the “MIC P. aeruginosa (value in brackets)” value amounted to 27 µg/mL. Also, in series [4], the “MIC K. pneumoniae” value stood at 9.02 ± 0.0 µM, the EC50 is 5.9 ± 0.2 µM and the “MIC K. pneumoniae (value in brackets)” value is 4 µg/mL. Further, in series [5], the “MIC A. baumannii” value was 9.0 ± 0.0 µM, the EC50 is 1.6 ± 0.1 µM and the “MIC A. baumannii (value in brackets)” value came to 4 µg/mL. Further, in series [6], the “MIC MRSA” value came out at 144 ± 0.0 µM, the EC50 was 91.3 ± 0.6 µM and the “MIC MRSA (value in brackets)” value came out at 64 µg/mL. In series [7], the “MIC E. faecium” value amounted to 144 ± 0.0 µM, the EC50 was 133 ± 0.6 µM and the “MIC E. faecium (value in brackets)” value is 64 µg/mL.

For the compound `[Br][Ag]=[c]1n(Cc2ccccc2)c2ccccc2n1Cc1ccccn1` [5b, Bromido (1-(Pyridin-2-ylmethyl)-3-benzyl-benzimidazol-2-ylidene) Silver(I)], the “Molar conductivity ΛM” value in series [1] (1 h after dissolution) is 6.58 S cm^2 mol^–^1. In series [1] (24 h after dissolution), the “Molar conductivity ΛM” value is recorded as 5.68 S cm^2 mol^–^1. For the same compound, in series [2], the EC50 came out at 27.1 ± 1.2 µM, the “MIC E. coli” value is 32.8 ± 0.0 µM and the “MIC E. coli (value in brackets)” value was 16 µg/mL. For the same compound, in series [3], the “MIC P. aeruginosa” value was found to be 65.7 ± 0.0 µM, the EC50 turned out to be 28.2 ± 2.7 µM and the “MIC P. aeruginosa (value in brackets)” value is 32 µg/mL. Besides, in series [4], the “MIC K. pneumoniae” value worked out at 16.4 ± 0.0 µM, the EC50 was 9.5 ± 0.3 µM and the “MIC K. pneumoniae (value in brackets)” value stood at 8 µg/mL. Also, in series [5], the “MIC A. baumannii” value turned out to be 16.4 ± 0.0 µM, the EC50 worked out at 0.72 ± 0.15 µM and the “MIC A. baumannii (value in brackets)” value was 8 µg/mL. Also, in series [6], the “MIC MRSA” value came to 131 ± 0.0 µM, the EC50 came out at 75.5 ± 1.4 µM and the “MIC MRSA (value in brackets)” value is 64 µg/mL. Besides, in series [7], the “MIC E. faecium” value turned out to be 131 ± 0.0 µM, the EC50 was 111 ± 0.2 µM and the “MIC E. faecium (value in brackets)” value was found to be 64 µg/mL.

Consider `[Br][Ag][c]1n(Cc2ccccn2)c2ccccc2[n+]1Cc1ccccn1` [6b], for which the “Molar conductivity ΛM” value in series [1] (1 h after dissolution) is on record as 6.13 S cm^2 mol^–^1. Moreover, the “Molar conductivity ΛM” value in series [1] (24 h after dissolution) was 6.50 S cm^2 mol^–^1. In series [2], it took 14.6 ± 1 µM to reach a half-maximal effect (EC50), the “MIC E. coli” value was determined as 21.9 ± 5.5 µM and the “MIC E. coli (value in brackets)” value was found to be 10 µg/mL. Also, in series [3], the “MIC P. aeruginosa” value was 27.3 ± 5.5 µM, the EC50 is 13.5 ± 3.7 µM and the “MIC P. aeruginosa (value in brackets)” value came out at 13 µg/mL. Further, in series [4], the “MIC K. pneumoniae” value came to 13.7 ± 0.0 µM, the EC50 was found to be 6.4 ± 0.2 µM and the “MIC K. pneumoniae (value in brackets)” value was 7 µg/mL. Besides, in series [5], the “MIC A. baumannii” value came out at 8.2 ± 0.0 µM, the EC50 is 0.47 ± 0.02 µM and the “MIC A. baumannii (value in brackets)” value is 4 µg/mL. Besides, in series [6], the “MIC MRSA” value is 132 ± 0.0 µM, the EC50 was determined as 90.7 ± 4.5 µM and the “MIC MRSA (value in brackets)” value was 64 µg/mL. In series [7], the “MIC E. faecium” value came out at 132 ± 0.0 µM, the half-maximal effective concentration (EC50) was determined as 105 ± 0.1 µM and the “MIC E. faecium (value in brackets)” value was 64 µg/mL.

On to `Cn1[c](=[Ag][Br])n(Cc2ccccn2)c2ccccc21` [1b, Bromido (1-Methyl-3-(pyridin-2-ylmethyl)-benzimidazol-2-ylidene) Silver(I)], for which the “Molar conductivity ΛM” value in series [1] (1 h after dissolution) is on record as 4.75 S cm^2 mol^–^1. Besides, in series [1] (24 h after dissolution), the “Molar conductivity ΛM” value was 4.82 S cm^2 mol^–^1. Further, in series [2], the EC50 came to 71.3 ± 6.7 µM, the “MIC E. coli” value was found to be 103 ± 25 µM and the “MIC E. coli (value in brackets)” value turned out to be 43 µg/mL. In addition, in series [3], the “MIC P. aeruginosa” value amounted to 25.9 ± 6.5 µM, the EC50 turned out to be 10.9 ± 3.9 µM and the “MIC P. aeruginosa (value in brackets)” value worked out at 11 µg/mL. In series [4], the “MIC K. pneumoniae” value turned out to be 16.2 ± 3.2 µM, the EC50 stood at 10 ± 2.2 µM and the “MIC K. pneumoniae (value in brackets)” value was determined as 7 µg/mL. Also, in series [5], the “MIC A. baumannii” value came out at 16.2 ± 3.2 µM, the EC50 was determined as 2.6 ± 0.3 µM and the “MIC A. baumannii (value in brackets)” value worked out at 7 µg/mL. For the same compound, in series [6], the “MIC MRSA” value stood at 156 ± 0.0 µM, the EC50 is 134 ± 14 µM and the “MIC MRSA (value in brackets)” value came to 64 µg/mL. In addition, in series [7], the “MIC E. faecium” value was found to be 156 ± 0.0 µM, the EC50 came out at 129 ± 2.8 µM and the “MIC E. faecium (value in brackets)” value amounted to 64 µg/mL.

As for `[Cl][Ag][c]1n(Cc2ccccc2)c2ccccc2[n+]1Cc1ccccn1` [5a], in series [1] (1 h after dissolution), the “Molar conductivity ΛM” value was 4.24 S cm^2 mol^–^1. In addition, the “Molar conductivity ΛM” value in series [1] (24 h after dissolution) was 3.70 S cm^2 mol^–^1. In addition, in series [2], the EC50 came out at 35.1 ± 1.1 µM, the “MIC E. coli” value is 60.2 ± 12.0 µM and the “MIC E. coli (value in brackets)” value turned out to be 27 µg/mL. Also, in series [3], the “MIC P. aeruginosa” value turned out to be 30.1 ± 6.0 µM, the concentration for a half-maximal effect (EC50) came out at 16 ± 1.7 µM and the “MIC P. aeruginosa (value in brackets)” value came to 13 µg/mL. In series [4], the “MIC K. pneumoniae” value was found to be 18.1 ± 0.0 µM, the EC50 is 8.5 ± 1 µM and the “MIC K. pneumoniae (value in brackets)” value was determined as 8 µg/mL. Moreover, in series [5], the “MIC A. baumannii” value came to 9.0 ± 0.0 µM, the EC50 came to 1.7 µM and the “MIC A. baumannii (value in brackets)” value is 4 µg/mL. Further, in series [6], the “MIC MRSA” value came to 145 ± 0.0 µM, the EC50 was 82.9 ± 1.5 µM and the “MIC MRSA (value in brackets)” value came out at 64 µg/mL. Moreover, in series [7], the “MIC E. faecium” value came out at 145 ± 0.0 µM, the EC50 came to 119 ± 3.6 µM and the “MIC E. faecium (value in brackets)” value is 64 µg/mL.
